From patent US7148376B2, “Polymorphic forms of nateglinide” (Teva Pharmaceutical Industries Ltd., priority 2002, dated 2006)
Entries after “also recorded” stand apart in the source; their conditions may differ.

Legend:
[1] = Thermal stability: polymorphic form after drying or heating (XRPD); assay type: physicochemical; details: for crystal form obtained upon drying: drying by heating under ambient or reduced pressure, generally about 40° C. to about 80° C.
Protocol: The various crystalline forms are related to each other in that drying of one form may result in a transformation to another form, namely nateglinide Forms A, B, D, E, F, G, H, I, J, K, L, M, N, Q, S, T, V, Z, α, β, δ, γ, ε, θ and Ω. The drying is carried out by heating a sample under ambient or reduced pressure. Generally, a preferred temperature is from about 40° C. to about 80° C., more preferably under reduced pressure. […] The term “stable” as used herein refers to a polymorphic change of less than about 5% by weight, more preferably less than about 2%, particularly for Form δ.
(§1) • X-Ray diffraction was performed on X-Ray powder diffractometer, Scintag®, variable goniometer, Cu-tube, solid state detector. Sample holder: A round standard aluminum sample holder with round zero background quartz plate. • The sample was put on the sample holder and immediately analyzed as is. • Scanning parameters: Range: 2–40 deg 2θ, Continuos Scan, Rate: 3 deg./min. DSC: • DSC821^e Mettler Toledo®, Sample weight: 3–5 mg, Heating rate: 10° C./min, Number of holes in the crucible: 3 TGA: • Mettler TG50®, Sample weight: 7–15 mg, Heating rate: 10° C./min FTIR: • Perkin-Elmer®, Spectrum One FTIR spectrometer, Range: 4000–400 cm−1, no. of scans: 16, resolution: 4.0 cm−1, DRIFT technique.
Sample of nateglinide form U (˜1 g) was introduced into a 6-gram vial and heated over 8.5 h in a 100° C. oil bath. The vial were extracted from the bath.
Sample of nateglinide form U (˜0.5 g) was heated to 120° C. for 1 h in an atmospheric pressure.
Sample of nateglinide form δ (˜0.5 g) was heated to 120° C. for 1 h in an atmospheric pressure.

[2] = Polymorphic stability on storage at room temperature (XRPD); assay type: physicochemical; details: storage at room temperature and pressure for about a day
Protocol: The various crystalline forms are also analyzed by Thermal Gravimetric Analysis (TGA). […] In contrast to the above listed forms, TGA profiles of forms L, P, U, α, δ and σ show no significant weight loss. These polymorphic forms of nateglinide are free of bound solvents, i.e., less than about 2% LOD. Table III lists the solvents used for the preparation for nateglinide solvated forms, as well as LOD values based on TGA analysis.
Storage at room temperature and pressure may also cause a transition of one form to another.
as §1

[3] = Exposure of nateglinide Form H to solvent vapors; assay type: physicochemical; details: vapors of water and acetone, room temperature
Protocol: Some of the crystalline forms are obtained by absorption of solvent vapors. Nateglinide is contacted with vapors of a particular solvent, resulting in absorption of the solvent. Absorption of ethanol results in Form D, methanol in Form O, and DCM in Form Y. Form H was stable in the presence of vapors of water and acetone.
Nateglinide (3.50 g) was added to a polypropylene can and weighed. The can was introduced into a bigger polypropylene container containing a solvent, and stored at room temperature. The can was removed from the container and weighed (Wfinal). The can content was divided into 2 portions. One portion was dried at a temperature of 55° C. and a pressure of 20–30 mmHg to constant weight (±0.01 g).

[4] = cited from earlier work

Structure (SMILES): CC(C)[C@H]1CC[C@H](C(=O)N[C@H](Cc2ccccc2)C(=O)O)CC1 [acetonitrile solvate of Form Epsilon, nateglinide]
- crystal form obtained upon drying [1]: Form B

Structure (SMILES): CC(C)[C@H]1CC[C@H](C(=O)N[C@H](Cc2ccccc2)C(=O)O)CC1 [Form β, nateglinide]
- crystal form obtained upon drying ([1]; listed as β): convert to Form B

Structure (SMILES): CC(C)[C@H]1CC[C@H](C(=O)N[C@H](Cc2ccccc2)C(=O)O)CC1 [Form U, nateglinide]
- thermal stability (conversion to another form upon heating) [1]: thermally stable
- crystal form after heating at about 100° C. ([1]; 100° C. oil bath, 8.5 h, XRPD): does not undergo a transition; also recorded: Form U
- crystal form after heating to 120° C. for 1 h ([1]; 120° C., 1 h, atmospheric pressure, XRPD): Form U

Structure (SMILES): CC(C)[C@H]1CC[C@H](C(=O)N[C@H](Cc2ccccc2)C(=O)O)CC1 [Form D, nateglinide]
- crystal form obtained upon drying ([1]; listed as D): convert to Form B

Structure (SMILES): CC(C)[C@H]1CC[C@H](C(=O)N[C@H](Cc2ccccc2)C(=O)O)CC1 [Form I, nateglinide]
- transition of one form to another on storage ([2]; listed as I): converts to Form L

Structure (SMILES): CC(C)[C@H]1CC[C@H](C(=O)N[C@H](Cc2ccccc2)C(=O)O)CC1 [Form C, nateglinide]
- crystal form obtained upon drying ([1]; listed as C): convert to Form B

Structure (SMILES): CC(C)[C@H]1CC[C@H](C(=O)N[C@H](Cc2ccccc2)C(=O)O)CC1 [Form Ω, nateglinide]
- crystal form after drying at 50° C. in a vacuum oven overnight ([1]; 50° C., vacuum oven, overnight, XRD): mixture of Form omega and Form Z
- crystal form obtained upon drying ([1]; listed as Ω): convert to Form B

Structure (SMILES): CC(C)[C@H]1CC[C@H](C(=O)N[C@H](Cc2ccccc2)C(=O)O)CC1 [Form O, nateglinide]
- thermal stability (conversion to another form upon heating) [1]: somewhat stable

Structure (SMILES): CC(C)[C@H]1CC[C@H](C(=O)N[C@H](Cc2ccccc2)C(=O)O)CC1 [Form θ, nateglinide]
- crystal form obtained upon drying ([1]; listed as θ): convert to Form B

Structure (SMILES): CC(C)[C@H]1CC[C@H](C(=O)N[C@H](Cc2ccccc2)C(=O)O)CC1 [Form Z, nateglinide]
- crystal form obtained upon drying ([1]; listed as Z): convert to Form B

Structure (SMILES): CC(C)[C@H]1CC[C@H](C(=O)N[C@H](Cc2ccccc2)C(=O)O)CC1 [Form E, nateglinide]
- crystal form obtained upon drying ([1]; listed as E): convert to Form B

Structure (SMILES): CC(C)[C@H]1CC[C@H](C(=O)N[C@H](Cc2ccccc2)C(=O)O)CC1 [Form σ, nateglinide]
- thermal stability (conversion to another form upon heating) [1]: thermally stable

Structure (SMILES): CC(C)[C@H]1CC[C@H](C(=O)N[C@H](Cc2ccccc2)C(=O)O)CC1 [Form Y, nateglinide]
- thermal stability (conversion to another form upon heating) [1]: somewhat stable

Structure (SMILES): CC(C)[C@H]1CC[C@H](C(=O)N[C@H](Cc2ccccc2)C(=O)O)CC1 [Form H, nateglinide]
- stability in the presence of solvent vapors [3]: stable
- thermal stability (conversion to another form upon heating) [1]: thermally stable

Structure (SMILES): CC(C)[C@H]1CC[C@H](C(=O)N[C@H](Cc2ccccc2)C(=O)O)CC1 [Form Q, nateglinide]
- transition of one form to another on storage ([2]; listed as Q): converts to Form Y (containing chloroform)
- crystal form obtained upon drying ([1]; listed as Q): convert to Form B

Structure (SMILES): CC(C)[C@H]1CC[C@H](C(=O)N[C@H](Cc2ccccc2)C(=O)O)CC1 [Form T, nateglinide]
- transition of one form to another on storage ([2]; listed as T): converts to Form E
- crystal form obtained upon drying ([1]; listed as T): convert to Form B; also recorded: mixture of Form B and G

Structure (SMILES): CC(C)[C@H]1CC[C@H](C(=O)N[C@H](Cc2ccccc2)C(=O)O)CC1 [Form α, nateglinide]
- thermal stability (conversion to another form upon heating) [1]: somewhat stable
- crystal form obtained upon drying ([1]; listed as α): convert to Form B

Structure (SMILES): CC(C)[C@H]1CC[C@H](C(=O)N[C@H](Cc2ccccc2)C(=O)O)CC1 [nateglinide, (−)-N-(trans-4-isopropylcyclohexanecarbonyl)-D-Phenylalanine]
- solubility in acetonitrile ([4]; acetonitrile): sparingly soluble
- solubility in chloroform ([4]; chloroform): freely soluble
- solubility in ethanol ([4]; ethanol): freely soluble
- solubility in ether ([4]; ether): soluble
- solubility in methanol ([4]; methanol): freely soluble
- solubility in octanol ([4]; octanol): sparingly soluble
- solubility in water ([4]; water): practically insoluble

Structure (SMILES): CC(C)[C@H]1CC[C@H](C(=O)N[C@H](Cc2ccccc2)C(=O)O)CC1 [Form δ, nateglinide]
- thermal stability (conversion to another form upon heating) [1]: somewhat stable
- crystal form after heating at 120° C. ([1]; 120° C., 1 atmosphere, 1 h, XRPD): Form B
- crystal form obtained upon drying ([1]; listed as δ): convert to Form B
- polymorphic form after drying in a fluidized bed drier ([1]; fluidized bed drier, 4 hours at 60° C.): delta
- polymorph after drying in a stirred reactor ([1]; stirred reactor 7–10 rpm, 60 mmHg vacuum, 60° C., 6 hours): remained delta form

Structure (SMILES): CC(C)[C@H]1CC[C@H](C(=O)N[C@H](Cc2ccccc2)C(=O)O)CC1 [Form K, nateglinide]
- crystal form obtained upon drying ([1]; listed as K): convert to Form B

Structure (SMILES): CC(C)[C@H]1CC[C@H](C(=O)N[C@H](Cc2ccccc2)C(=O)O)CC1 [Form J, nateglinide]
- crystal form obtained upon drying ([1]; listed as J): convert to Form B

Structure (SMILES): CC(C)[C@H]1CC[C@H](C(=O)N[C@H](Cc2ccccc2)C(=O)O)CC1 [Form A, nateglinide]
- transition of one form to another on storage ([2]; listed as A): partially converts to Form B
- crystal form obtained upon drying ([1]; listed as A): convert to Form B

Structure (SMILES): CC(C)[C@H]1CC[C@H](C(=O)N[C@H](Cc2ccccc2)C(=O)O)CC1 [Form B, nateglinide]
- thermal stability (conversion to another form upon heating) [1]: thermally stable

Structure (SMILES): CC(C)[C@H]1CC[C@H](C(=O)N[C@H](Cc2ccccc2)C(=O)O)CC1 [nitromethane solvates of Form Epsilon, nateglinide]
- crystal form obtained upon drying [1]: Forms H or P

Structure (SMILES): CC(C)[C@H]1CC[C@H](C(=O)N[C@H](Cc2ccccc2)C(=O)O)CC1 [Form G, nateglinide]
- crystal form obtained upon drying ([1]; listed as G): convert to Form B

Structure (SMILES): CC(C)[C@H]1CC[C@H](C(=O)N[C@H](Cc2ccccc2)C(=O)O)CC1 [Form L, nateglinide]
- thermal stability (conversion to another form upon heating) [1]: thermally stable
